Key:
[1] = molecular target: Serine/threonine-protein kinase RIO3 (Homo sapiens) (UniProt O14730); conditions: Compound concentration 1000.0 nM
[2] = molecular target: Mitogen-activated protein kinase kinase kinase 12 (Homo sapiens) (UniProt Q12852); conditions: Compound concentration 1000.0 nM
[3] = molecular target: cAMP-dependent protein kinase catalytic subunit alpha (Homo sapiens) (UniProt P17612); conditions: Compound concentration 1000.0 nM
[4] = molecular target: BDNF/NT-3 growth factors receptor (Homo sapiens) (UniProt Q16620); conditions: Compound concentration 1000.0 nM
[5] = molecular target: NUAK family SNF1-like kinase 1 (Homo sapiens) (UniProt O60285); conditions: Compound concentration 1000.0 nM
[6] = molecular target: Serine/threonine-protein kinase 24 (Homo sapiens) (UniProt Q9Y6E0); conditions: Compound concentration 1000.0 nM
[7] = molecular target: Glycogen synthase kinase-3 beta (Homo sapiens) (UniProt P49841); conditions: Compound concentration 1000.0 nM
[8] = molecular target: Serine/threonine-protein kinase PknB (Mycobacterium tuberculosis) (UniProt P9WI81); conditions: Compound concentration 1000.0 nM
[9] = molecular target: Cyclin-dependent kinase 8 (Homo sapiens) (UniProt P49336); conditions: Compound concentration 1000.0 nM
[10] = molecular target: Serine/threonine-protein kinase 38 (Homo sapiens) (UniProt Q15208); conditions: Compound concentration 1000.0 nM
[11] = molecular target: SNF-related serine/threonine-protein kinase (Homo sapiens) (UniProt Q9NRH2); conditions: Compound concentration 1000.0 nM
[12] = molecular target: Mitogen-activated protein kinase kinase kinase 7 (Homo sapiens) (UniProt O43318); conditions: Compound concentration 1000.0 nM
[13] = molecular target: Activin receptor type-1 (Homo sapiens) (UniProt Q04771); conditions: Compound concentration 1000.0 nM
[14] = molecular target: Serine/threonine-protein kinase ICK (Homo sapiens) (UniProt Q9UPZ9); conditions: Compound concentration 1000.0 nM
[15] = molecular target: Mitogen-activated protein kinase kinase kinase kinase 2 (Homo sapiens) (UniProt Q12851); conditions: Compound concentration 1000.0 nM
[16] = molecular target: Cyclin-dependent kinase-like 5 (Homo sapiens) (UniProt O76039); conditions: Compound concentration 1000.0 nM
[17] = molecular target: SRSF protein kinase 3 (Homo sapiens) (UniProt Q9UPE1); conditions: Compound concentration 1000.0 nM
[18] = tested on: Epidermal growth factor receptor (Homo sapiens), P00533 [G719C]; conditions: Compound concentration 1000.0 nM
[19] = molecular target: Serine/threonine-protein kinase Nek9 (Homo sapiens) (UniProt Q8TD19); conditions: Compound concentration 1000.0 nM
[20] = molecular target: Serine/threonine-protein kinase 10 (Homo sapiens) (UniProt O94804); conditions: Compound concentration 1000.0 nM
[21] = molecular target: Activin receptor type-1B (Homo sapiens) (UniProt P36896); conditions: Compound concentration 1000.0 nM
[22] = molecular target: Dual specificity mitogen-activated protein kinase kinase 2 (Homo sapiens) (UniProt P36507); conditions: Compound concentration 1000.0 nM
[23] = molecular target: Calcium/calmodulin-dependent protein kinase type 1G (Homo sapiens) (UniProt Q96NX5); conditions: Compound concentration 1000.0 nM
[24] = molecular target: Serine/threonine-protein kinase 32A (Homo sapiens) (UniProt Q8WU08); conditions: Compound concentration 1000.0 nM
[25] = molecular target: Cyclin-dependent kinase-like 1 (Homo sapiens) (UniProt Q00532); conditions: Compound concentration 1000.0 nM
[26] = molecular target: Serine/threonine-protein kinase WNK4 (Homo sapiens) (UniProt Q96J92); conditions: Compound concentration 1000.0 nM
[27] = molecular target: Kappa-type opioid receptor (Homo sapiens) (UniProt P41145); conditions: Compound concentration 10.0 uM
[28] = molecular target: Transient receptor potential cation channel subfamily M member 6 (Homo sapiens) (UniProt Q9BX84); conditions: Compound concentration 1000.0 nM
[29] = molecular target: Mitogen-activated protein kinase kinase kinase 10 (Homo sapiens) (UniProt Q02779); conditions: Compound concentration 1000.0 nM
[30] = molecular target: cAMP-dependent protein kinase catalytic subunit beta (Homo sapiens) (UniProt P22694); conditions: Compound concentration 1000.0 nM
[31] = molecular target: Vascular endothelial growth factor receptor 2 (Homo sapiens) (UniProt P35968); conditions: Compound concentration 1000.0 nM
[32] = molecular target: Sigma non-opioid intracellular receptor 1 (Homo sapiens) (UniProt Q99720); conditions: Compound concentration 10.0 uM
[33] = molecular target: Ribosomal protein S6 kinase alpha-2 (Homo sapiens) (UniProt Q15349); conditions: Compound concentration 1000.0 nM
[34] = molecular target: Receptor-type tyrosine-protein kinase FLT3 (Homo sapiens) (UniProt P36888); conditions: Compound concentration 1000.0 nM
[35] = molecular target: Angiopoietin-1 receptor (Homo sapiens) (UniProt Q02763); conditions: Compound concentration 1000.0 nM
[36] = molecular target: Cyclin-dependent kinase 4 (Homo sapiens) (UniProt P11802); conditions: Compound concentration 1000.0 nM
[37] = molecular target: T1, 5-hydroxytryptamine receptor 2C (Homo sapiens) (UniProt P28335); conditions: Compound concentration 10.0 uM
T1 sequence (whole entry): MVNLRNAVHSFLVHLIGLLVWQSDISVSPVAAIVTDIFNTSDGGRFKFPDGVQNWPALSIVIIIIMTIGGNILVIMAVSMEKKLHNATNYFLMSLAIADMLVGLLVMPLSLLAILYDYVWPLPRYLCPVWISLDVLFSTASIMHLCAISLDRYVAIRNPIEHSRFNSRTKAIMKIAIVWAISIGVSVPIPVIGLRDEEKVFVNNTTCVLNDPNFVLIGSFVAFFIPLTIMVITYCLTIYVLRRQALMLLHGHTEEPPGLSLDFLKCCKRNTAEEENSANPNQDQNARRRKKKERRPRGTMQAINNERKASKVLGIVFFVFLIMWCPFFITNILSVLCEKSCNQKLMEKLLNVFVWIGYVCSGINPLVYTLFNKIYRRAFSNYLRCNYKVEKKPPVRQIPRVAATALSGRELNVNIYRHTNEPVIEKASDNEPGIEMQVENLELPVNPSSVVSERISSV

[38] = molecular target: Cyclin-dependent kinase 2 (Homo sapiens) (UniProt P24941); conditions: Compound concentration 1000.0 nM
[39] = molecular target: Serine/threonine-protein kinase Chk1 (Homo sapiens) (UniProt O14757); conditions: Compound concentration 1000.0 nM
Sequence of Serine/threonine-protein kinase Chk1 (Homo sapiens) (O14757 whole entry): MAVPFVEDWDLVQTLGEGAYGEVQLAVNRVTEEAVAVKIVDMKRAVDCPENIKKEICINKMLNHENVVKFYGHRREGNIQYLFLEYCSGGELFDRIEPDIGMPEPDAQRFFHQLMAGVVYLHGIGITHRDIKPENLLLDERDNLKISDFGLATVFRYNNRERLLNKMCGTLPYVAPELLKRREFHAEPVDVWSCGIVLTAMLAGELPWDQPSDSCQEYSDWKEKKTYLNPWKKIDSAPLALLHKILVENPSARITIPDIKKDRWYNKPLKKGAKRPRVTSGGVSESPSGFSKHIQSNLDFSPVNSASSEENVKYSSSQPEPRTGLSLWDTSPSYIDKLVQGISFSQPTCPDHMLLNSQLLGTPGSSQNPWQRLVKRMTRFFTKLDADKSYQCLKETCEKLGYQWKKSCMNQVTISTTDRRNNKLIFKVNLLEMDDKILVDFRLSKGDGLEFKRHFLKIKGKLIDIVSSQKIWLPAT

Sequence of Serine/threonine-protein kinase WNK4 (Homo sapiens) (Q96J92 whole entry): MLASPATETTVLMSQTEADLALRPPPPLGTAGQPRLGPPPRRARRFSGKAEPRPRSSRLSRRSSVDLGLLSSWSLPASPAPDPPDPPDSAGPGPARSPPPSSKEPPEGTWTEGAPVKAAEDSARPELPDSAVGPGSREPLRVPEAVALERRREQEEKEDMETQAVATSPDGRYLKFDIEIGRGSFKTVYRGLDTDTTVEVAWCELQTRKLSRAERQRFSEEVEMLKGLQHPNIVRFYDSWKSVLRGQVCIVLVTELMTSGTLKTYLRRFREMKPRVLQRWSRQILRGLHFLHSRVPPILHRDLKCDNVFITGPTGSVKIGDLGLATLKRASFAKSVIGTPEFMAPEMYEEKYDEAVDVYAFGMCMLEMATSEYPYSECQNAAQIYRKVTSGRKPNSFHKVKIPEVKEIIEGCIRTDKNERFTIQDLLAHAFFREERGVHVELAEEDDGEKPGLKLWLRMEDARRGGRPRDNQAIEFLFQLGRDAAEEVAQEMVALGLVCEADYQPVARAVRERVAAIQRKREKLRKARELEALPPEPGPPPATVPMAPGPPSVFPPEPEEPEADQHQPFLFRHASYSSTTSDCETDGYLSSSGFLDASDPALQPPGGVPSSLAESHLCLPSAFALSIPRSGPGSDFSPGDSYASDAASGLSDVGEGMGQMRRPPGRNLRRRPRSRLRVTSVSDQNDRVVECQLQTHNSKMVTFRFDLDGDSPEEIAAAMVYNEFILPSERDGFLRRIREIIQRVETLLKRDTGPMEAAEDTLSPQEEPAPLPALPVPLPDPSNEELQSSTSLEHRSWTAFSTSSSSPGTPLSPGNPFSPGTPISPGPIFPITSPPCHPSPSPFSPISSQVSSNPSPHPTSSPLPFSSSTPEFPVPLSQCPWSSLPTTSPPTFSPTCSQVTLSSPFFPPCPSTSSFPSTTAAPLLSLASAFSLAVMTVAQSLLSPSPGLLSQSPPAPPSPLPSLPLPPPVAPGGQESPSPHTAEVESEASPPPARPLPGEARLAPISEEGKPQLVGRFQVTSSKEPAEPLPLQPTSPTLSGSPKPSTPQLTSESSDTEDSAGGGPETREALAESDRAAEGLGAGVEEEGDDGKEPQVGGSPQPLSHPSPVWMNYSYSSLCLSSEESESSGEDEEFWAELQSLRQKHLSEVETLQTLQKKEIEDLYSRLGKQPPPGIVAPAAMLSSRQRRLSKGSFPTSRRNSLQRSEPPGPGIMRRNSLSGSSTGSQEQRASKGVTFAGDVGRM
Sequence of Ribosomal protein S6 kinase alpha-2 (Homo sapiens) (Q15349 whole entry): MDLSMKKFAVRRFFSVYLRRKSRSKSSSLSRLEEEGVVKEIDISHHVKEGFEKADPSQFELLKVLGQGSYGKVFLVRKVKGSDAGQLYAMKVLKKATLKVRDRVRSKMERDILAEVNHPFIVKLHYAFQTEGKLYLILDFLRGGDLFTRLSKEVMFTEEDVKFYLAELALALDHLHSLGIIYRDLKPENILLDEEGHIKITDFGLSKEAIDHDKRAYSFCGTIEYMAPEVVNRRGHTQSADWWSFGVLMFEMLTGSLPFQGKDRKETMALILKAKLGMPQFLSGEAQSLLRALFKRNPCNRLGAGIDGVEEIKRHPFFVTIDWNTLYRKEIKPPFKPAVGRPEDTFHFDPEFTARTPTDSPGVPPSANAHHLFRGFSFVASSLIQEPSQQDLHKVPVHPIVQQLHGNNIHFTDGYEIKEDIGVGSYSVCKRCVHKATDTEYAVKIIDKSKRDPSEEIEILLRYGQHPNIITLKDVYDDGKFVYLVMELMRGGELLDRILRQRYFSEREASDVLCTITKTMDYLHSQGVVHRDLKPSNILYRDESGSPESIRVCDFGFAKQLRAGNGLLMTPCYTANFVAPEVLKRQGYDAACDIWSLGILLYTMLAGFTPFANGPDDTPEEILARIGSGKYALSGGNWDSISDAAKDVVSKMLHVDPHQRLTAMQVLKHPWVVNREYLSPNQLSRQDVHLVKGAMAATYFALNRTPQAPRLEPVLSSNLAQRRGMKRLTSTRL
Sequence of Glycogen synthase kinase-3 beta (Homo sapiens) (P49841 whole entry, looked up): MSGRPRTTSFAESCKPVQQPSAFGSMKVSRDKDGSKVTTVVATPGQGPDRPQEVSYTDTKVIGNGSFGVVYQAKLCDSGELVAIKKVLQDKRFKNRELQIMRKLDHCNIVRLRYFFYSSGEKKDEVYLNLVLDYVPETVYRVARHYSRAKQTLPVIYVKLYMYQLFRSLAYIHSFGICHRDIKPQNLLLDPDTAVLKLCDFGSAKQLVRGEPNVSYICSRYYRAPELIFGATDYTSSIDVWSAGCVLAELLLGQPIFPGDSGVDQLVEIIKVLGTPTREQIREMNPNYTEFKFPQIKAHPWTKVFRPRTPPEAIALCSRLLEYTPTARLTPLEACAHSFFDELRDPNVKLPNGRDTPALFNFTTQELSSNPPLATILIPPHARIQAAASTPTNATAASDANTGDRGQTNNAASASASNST
Sequence of Dual specificity mitogen-activated protein kinase kinase 2 (Homo sapiens) (P36507 whole entry): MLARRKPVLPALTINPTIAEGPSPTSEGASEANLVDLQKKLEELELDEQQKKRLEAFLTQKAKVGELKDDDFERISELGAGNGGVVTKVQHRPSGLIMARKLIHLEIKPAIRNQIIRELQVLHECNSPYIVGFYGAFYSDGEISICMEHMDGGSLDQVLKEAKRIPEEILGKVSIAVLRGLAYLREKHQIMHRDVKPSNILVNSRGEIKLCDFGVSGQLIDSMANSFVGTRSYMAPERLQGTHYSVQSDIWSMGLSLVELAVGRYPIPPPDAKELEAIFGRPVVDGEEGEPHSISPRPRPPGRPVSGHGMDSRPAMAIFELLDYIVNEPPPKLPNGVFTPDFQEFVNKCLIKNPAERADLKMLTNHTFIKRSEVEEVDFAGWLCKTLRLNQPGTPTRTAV
Sequence of BDNF/NT-3 growth factors receptor (Homo sapiens) (Q16620 32-822 limits assumed): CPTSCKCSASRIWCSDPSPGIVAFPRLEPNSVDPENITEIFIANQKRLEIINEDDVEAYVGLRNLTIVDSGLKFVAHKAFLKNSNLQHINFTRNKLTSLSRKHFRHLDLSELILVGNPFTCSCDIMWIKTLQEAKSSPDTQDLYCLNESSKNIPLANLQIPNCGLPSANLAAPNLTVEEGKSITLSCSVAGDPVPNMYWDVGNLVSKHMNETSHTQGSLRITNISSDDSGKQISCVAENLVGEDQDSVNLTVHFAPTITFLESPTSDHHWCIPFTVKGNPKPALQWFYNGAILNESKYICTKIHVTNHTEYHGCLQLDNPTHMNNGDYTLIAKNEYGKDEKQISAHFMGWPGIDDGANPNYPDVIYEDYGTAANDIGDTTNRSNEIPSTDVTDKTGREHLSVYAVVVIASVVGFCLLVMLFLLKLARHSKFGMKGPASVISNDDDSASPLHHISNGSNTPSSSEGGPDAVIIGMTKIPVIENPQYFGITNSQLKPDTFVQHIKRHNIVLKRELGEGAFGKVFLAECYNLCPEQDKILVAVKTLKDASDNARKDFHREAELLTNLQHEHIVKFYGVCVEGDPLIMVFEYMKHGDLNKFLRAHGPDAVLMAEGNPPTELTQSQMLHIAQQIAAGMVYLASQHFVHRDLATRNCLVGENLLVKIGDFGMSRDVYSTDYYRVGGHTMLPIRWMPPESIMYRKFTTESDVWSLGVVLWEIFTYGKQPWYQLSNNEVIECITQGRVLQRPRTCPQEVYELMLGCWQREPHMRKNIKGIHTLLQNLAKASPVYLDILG
Sequence of Mitogen-activated protein kinase kinase kinase kinase 2 (Homo sapiens) (Q12851 whole entry): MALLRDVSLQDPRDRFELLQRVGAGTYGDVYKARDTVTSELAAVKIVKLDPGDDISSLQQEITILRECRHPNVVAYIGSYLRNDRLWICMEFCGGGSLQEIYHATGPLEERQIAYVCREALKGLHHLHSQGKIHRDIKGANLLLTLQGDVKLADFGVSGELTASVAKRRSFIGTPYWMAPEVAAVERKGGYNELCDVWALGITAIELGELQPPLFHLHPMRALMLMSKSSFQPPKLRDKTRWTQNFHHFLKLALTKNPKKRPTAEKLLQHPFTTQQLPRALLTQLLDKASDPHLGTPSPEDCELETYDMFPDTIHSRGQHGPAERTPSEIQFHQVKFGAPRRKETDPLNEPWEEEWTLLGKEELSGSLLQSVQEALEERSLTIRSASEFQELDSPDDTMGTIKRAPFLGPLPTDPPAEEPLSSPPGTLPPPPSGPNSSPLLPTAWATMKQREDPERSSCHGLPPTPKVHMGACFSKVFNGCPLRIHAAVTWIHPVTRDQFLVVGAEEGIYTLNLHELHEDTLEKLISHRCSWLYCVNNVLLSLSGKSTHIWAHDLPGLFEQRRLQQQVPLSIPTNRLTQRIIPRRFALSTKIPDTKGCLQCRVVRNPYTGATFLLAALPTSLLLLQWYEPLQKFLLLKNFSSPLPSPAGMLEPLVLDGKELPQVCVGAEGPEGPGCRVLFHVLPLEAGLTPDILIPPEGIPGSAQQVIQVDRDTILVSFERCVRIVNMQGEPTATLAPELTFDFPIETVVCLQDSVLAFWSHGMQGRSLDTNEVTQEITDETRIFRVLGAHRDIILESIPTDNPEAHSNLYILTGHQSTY

O=C(NCc1ncc(C(F)(F)F)cc1Cl)c1ccc2c(c1)C1(CCS(=O)(=O)CC1)[C@@H](C1CC1)N2S(=O)(=O)c1ccc(F)cc1 [BAY-786]
inactive: residual activity [1] 72% | residual activity [2] 87% | residual activity [3] 98% | residual activity [4] 71% | residual activity [5] 88% | residual activity [6] 100% | residual activity [7] 90% | residual activity [8] 84% | residual activity [9] 63% | residual activity [10] 84% | residual activity [11] 96% | residual activity [12] 63% | residual activity [13] 97% | residual activity [14] 97% | residual activity [15] 91% | residual activity [16] 67% | residual activity [17] 100% | residual activity [18] 90% | residual activity [19] 72% | residual activity [20] 94% | residual activity [21] 87% | residual activity [22] 78% | residual activity [23] 100% | residual activity [24] 99% | residual activity [25] 100% | residual activity [26] 100% | inhibition [27] 4.54% | residual activity [28] 92% | residual activity [29] 100% | residual activity [30] 85% | residual activity [31] 80% | inhibition [32] 37.6% | residual activity [33] 93% | residual activity [34] 100% | residual activity [35] 96% | residual activity [36] 80% | inhibition [37] 16.9% | residual activity [38] 100% | residual activity [39] 100%

O=C(NCc1ncc(C(F)(F)F)cc1Cl)c1ccc2c(c1)C1(CCS(=O)(=O)CC1)[C@H](C1CC1)N2S(=O)(=O)c1ccc(F)cc1 [BAY-784]
inactive: residual activity [1] 69% | residual activity [2] 82% | residual activity [3] 86% | residual activity [4] 60% | residual activity [5] 83% | residual activity [6] 100% | residual activity [7] 87% | residual activity [8] 96% | residual activity [9] 80% | residual activity [10] 92% | residual activity [11] 77% | residual activity [12] 80% | residual activity [13] 100% | residual activity [14] 100% | residual activity [15] 100% | residual activity [16] 78% | residual activity [17] 100% | residual activity [18] 78% | residual activity [19] 100% | residual activity [20] 54% | residual activity [21] 94% | residual activity [22] 88% | residual activity [23] 98% | residual activity [24] 100% | residual activity [25] 90% | residual activity [26] 91% | inhibition [27] 14.4% | residual activity [28] 81% | residual activity [29] 100% | residual activity [30] 96% | residual activity [31] 83% | inhibition [32] 17.8% | residual activity [33] 100% | residual activity [34] 100% | residual activity [35] 100% | residual activity [36] 93% | inhibition [37] 9.65% | residual activity [38] 85% | residual activity [39] 100%
